Measured values as given in ChEMBL document CHEMBL4739716, “Gpr139 receptor modulators” (2020).
pEC50: −log10 of the molar value.

Legend:
[1] = molecular target: T1, Probable G-protein coupled receptor 139 (Homo sapiens, UniProt Q6DWJ6); test: Agonist activity at human GPR139 expressed in CHO-K1 cells assessed as induction of beta-arrestin 2 recruitment incubated for 90 mins by PathHunter assay; assay type: cell-based
T1 sequence (Q6DWJ6 whole entry): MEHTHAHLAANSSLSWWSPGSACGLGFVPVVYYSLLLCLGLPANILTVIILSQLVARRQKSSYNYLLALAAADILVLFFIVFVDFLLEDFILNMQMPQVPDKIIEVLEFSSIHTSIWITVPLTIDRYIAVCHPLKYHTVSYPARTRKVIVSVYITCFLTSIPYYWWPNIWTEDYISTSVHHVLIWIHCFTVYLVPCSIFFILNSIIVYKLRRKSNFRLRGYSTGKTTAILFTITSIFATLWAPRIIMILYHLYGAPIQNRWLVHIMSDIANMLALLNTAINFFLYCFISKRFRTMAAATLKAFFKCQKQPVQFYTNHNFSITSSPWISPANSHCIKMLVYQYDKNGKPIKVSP

[2] = molecular target: T2, Probable G-protein coupled receptor 139 (Rattus norvegicus) (UniProt P0C0W8); test: Agonist activity at rat GPR139 expressed in CHO-K1 cells assessed as increase in calcium flux by calcium 5 dye based FLIPR assay relative to JNJ63533054; assay type: cell-based
T2 sequence (whole entry): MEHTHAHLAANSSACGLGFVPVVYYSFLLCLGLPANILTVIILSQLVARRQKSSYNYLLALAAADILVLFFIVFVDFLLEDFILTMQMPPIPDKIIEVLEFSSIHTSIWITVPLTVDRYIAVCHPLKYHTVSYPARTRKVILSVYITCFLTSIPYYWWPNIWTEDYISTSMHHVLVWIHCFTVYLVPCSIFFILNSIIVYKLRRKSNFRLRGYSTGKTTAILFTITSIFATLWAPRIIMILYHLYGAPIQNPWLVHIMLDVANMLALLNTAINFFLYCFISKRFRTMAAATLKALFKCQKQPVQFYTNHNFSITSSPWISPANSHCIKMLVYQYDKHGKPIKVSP

[3] = molecular target: T3, Probable G-protein coupled receptor 139 (Homo sapiens) (UniProt Q6DWJ6); test: Agonist activity at human GPR139 expressed in CHO-K1 cells assessed as increase in calcium flux by calcium 5 dye based FLIPR assay relative to JNJ63533054; assay type: functional, cell-based; conditions: filed as agonist
T3 sequence (whole entry): T1 sequence (Q6DWJ6 whole entry)

[4] = molecular target: T4, Probable G-protein coupled receptor 139 (Rattus norvegicus, UniProt P0C0W8); test: Agonist activity at rat GPR139 expressed in CHO-K1 cells assessed as increase in calcium flux by calcium 5 dye based FLIPR assay; assay type: cell-based
T4 sequence (P0C0W8 whole entry): T2 sequence (whole entry)

[5] = molecular target: T1, Probable G-protein coupled receptor 139; test: Agonist activity at human GPR139 expressed in CHO-K1 cells assessed as increase in calcium flux by calcium 5 dye based FLIPR assay; assay type: functional, cell-based
[6] = molecular target: T3, Probable G-protein coupled receptor 139 (Homo sapiens); test: Agonist activity at human GPR139 expressed in CHO-K1 cells assessed as induction of beta-arrestin 2 recruitment incubated for 90 mins by PathHunter assay relative to JNJ63533054; assay type: cell-based

Compound | pEC50 ([1]; cho-k1) | Emax ([2]; filed as agonist) [%] | Emax [3] [%] | pEC50 [4] | pEC50 [5] | Emax ([6]; filed as agonist) [%] | pEC50 [1] | pEC50 ([4]; cho-k1) | pEC50 ([5]; cho-k1) | Emax [6] [%] | Emax [2] [%]
C[C@H](NC(=O)Cn1nc2c(N3CCOCC3)cccn2c1=O)c1ccc(Cl)c(F)c1 | 8.00 | 50 | > 80 | > 9.00 | > 9.00 | 50 | – | – | – | – | –
Cc1ccc([C@H](C)NC(=O)Cn2nc3ccc(C)cn3c2=O)cc1 | 9.00 | 50 | > 80 | > 9.00 | > 9.00 | 50 | – | – | – | – | –
Cc1ccc([C@H](C)NC(=O)Cn2nc3cccnn3c2=O)cc1Cl | – | 50 | > 80 | – | – | > 80 | ≤ 7.00 | 9.00 | 9.00 | – | –
C[C@H](NC(=O)Cn1nc2c(NC3COC3)ccnn2c1=O)c1ccc(OC(F)(F)F)cc1 | – | 50 | > 80 | ≤ 7.00 | – | – | ≤ 7.00 | – | 9.00 | 25 | –
C[C@H](NC(=O)Cn1nc2cccnn2c1=O)c1ccc(C2CC2)c(F)c1 | – | 50 | > 80 | – | – | 50 | ≤ 7.00 | 9.00 | 9.00 | – | –
C[C@H](NC(=O)Cn1nc2cc(Cl)cnn2c1=O)c1ccc(Cl)c(F)c1 | 9.00 | > 80 | > 80 | – | > 9.00 | 50 | – | 9.00 | – | – | –
C[C@H](NC(=O)Cn1nc2ccccn2c1=O)c1ccc(Cl)c(F)c1 | 9.00 | > 80 | > 80 | > 9.00 | – | > 80 | – | – | 9.00 | – | –
Cc1ccc([C@H](C)NC(=O)Cn2nc3c(NCC(F)F)cccn3c2=O)cc1 | – | > 80 | > 80 | > 9.00 | > 9.00 | 50 | > 9.00 | – | – | – | –
C[C@H](NC(=O)Cn1nc2ncc(Cl)cn2c1=O)c1ccc(Cl)c(F)c1 | – | > 80 | > 80 | – | > 9.00 | 50 | ≤ 7.00 | 9.00 | – | – | –
C[C@H](NC(=O)Cn1nc2ccccn2c1=O)c1cnc(C(F)(F)F)nc1 | – | – | 50 | ≤ 7.00 | ≤ 7.00 | – | ≤ 7.00 | – | – | 25 | < 25
C[C@H](NC(=O)Cn1nc2c(N3CCC34CN(C)C4)cccn2c1=O)c1ccc(Cl)c(F)c1 | 8.00 | > 80 | 50 | – | – | – | – | 8.00 | 8.00 | 25 | –
COC1CCN(c2ccn3c(=O)n(CC(=O)N[C@@H](C)c4ccc(OC(F)(F)F)cc4)nc3c2)CC1 | – | 50 | 50 | – | – | > 80 | ≤ 7.00 | 9.00 | 9.00 | – | –
COc1ccc2nn(CC(=O)N[C@@H](C)c3ccc(C)cc3)c(=O)n2c1 | – | – | > 80 | > 9.00 | – | – | > 9.00 | – | 9.00 | 25 | 25
Cc1ccc([C@H](C)NC(=O)Cn2nc3ccccn3c2=O)cc1Cl | 9.00 | > 80 | > 80 | – | > 9.00 | > 80 | – | 9.00 | – | – | –
Cc1cc(Cl)ccc1[C@H](C)NC(=O)Cn1nc2ccccn2c1=O | 9.00 | 50 | > 80 | – | – | > 80 | – | 9.00 | 9.00 | – | –
COc1ccc2nn(CC(=O)N[C@@H](C)c3ccc(OC(F)(F)F)cc3)c(=O)n2c1 | – | 25 | 50 | – | > 9.00 | 50 | > 9.00 | 9.00 | – | – | –
COc1ccc2nn(CC(=O)N[C@@H](C)c3ccc(Cl)c(F)c3)c(=O)n2n1 | – | 50 | > 80 | – | > 9.00 | 50 | > 9.00 | 9.00 | – | – | –
C[C@H](NC(=O)Cn1nc2cc(N3CCC(O)CC3)ccn2c1=O)c1ccc(OC(F)(F)F)cc1 | – | > 80 | > 80 | – | – | – | ≤ 7.00 | 9.00 | 9.00 | 25 | –
CNc1cccn2c(=O)n(CC(=O)N[C@@H](C)c3ccc(C)cc3)nc12 | 9.00 | > 80 | > 80 | > 9.00 | > 9.00 | > 80 | – | – | – | – | –

Compound | pEC50 ([1]; cho-k1) | Emax ([2]; filed as agonist) [%] | Emax [3] [%] | pEC50 [4] | pEC50 [5] | Emax ([6]; filed as agonist) [%] | pEC50 [1] | pEC50 ([4]; cho-k1) | pEC50 ([5]; cho-k1) | Emax [6] [%] | Emax [2] [%]
COc1cnc2nn(CC(=O)N[C@@H](C)c3ccc(OC(F)(F)F)cc3)c(=O)n2c1 | 9.00 | – | > 80 | ≤ 7.00 | – | – | – | – | 9.00 | 25 | < 25
Cc1ccc([C@H](C)NC(=O)Cn2nc3ncccn3c2=O)cc1F | 8.00 | 50 | > 80 | – | – | 50 | – | 9.00 | 9.00 | – | –
C[C@H](NC(=O)Cn1nc2ccccn2c1=O)c1ccc(F)cc1 | – | – | 50 | ≤ 7.00 | – | – | ≤ 7.00 | – | 8.00 | < 25 | 25
COc1cccn2c(=O)n(CC(=O)N[C@@H](C)c3ccc(C)cc3)nc12 | – | 50 | > 80 | – | > 9.00 | 50 | > 9.00 | 9.00 | – | – | –
C[C@H](NC(=O)Cn1nc2c(NC3COC3)ccnn2c1=O)c1ccc(Cl)c(F)c1 | 8.00 | > 80 | > 80 | – | > 9.00 | > 80 | – | 9.00 | – | – | –
C[C@H](NC(=O)Cn1nc2c(C3CC3)ccnn2c1=O)c1ccc(Cl)c(F)c1 | 9.00 | > 80 | > 80 | > 9.00 | > 9.00 | > 80 | – | – | – | – | –
Cc1cc([C@H](C)NC(=O)Cn2nc3cccnn3c2=O)ccc1Cl | – | > 80 | > 80 | – | – | 50 | ≤ 7.00 | 9.00 | 9.00 | – | –
CC(NC(=O)Cn1nc2ccccn2c1=O)c1ncc(Cl)cc1F (stereo not drawn) | – | – | 50 | ≤ 7.00 | ≤ 7.00 | – | ≤ 7.00 | – | – | 25 | < 25
Cc1ccc([C@H](C)NC(=O)Cn2nc3cc(Cl)ccn3c2=O)cc1 | 9.00 | 50 | > 80 | – | > 9.00 | 50 | – | 9.00 | – | – | –
O=C(Cn1nc2cccnn2c1=O)NC1(c2ccc(Cl)cc2)CC1 | – | 50 | 50 | ≤ 7.00 | ≤ 7.00 | – | ≤ 7.00 | – | – | < 25 | –
C[C@H](NC(=O)Cn1nc2cc(OC3COC3)ccn2c1=O)c1ccc(OC(F)(F)F)cc1 | – | 50 | > 80 | – | – | > 80 | ≤ 7.00 | 9.00 | 9.00 | – | –
COc1ccn2c(=O)n(CC(=O)N[C@@H](C)c3ccc(OC(F)(F)F)cc3)nc2n1 | – | – | 50 | – | > 9.00 | – | > 9.00 | 9.00 | – | 25 | 25
CC(C)[C@H](NC(=O)Cn1nc2cccnn2c1=O)c1ccc(Cl)c(F)c1 | – | 50 | 50 | – | – | – | ≤ 7.00 | 9.00 | 9.00 | < 25 | –
C[C@H](NC(=O)Cn1nc2cc(Cl)ccn2c1=O)c1ccc(Cl)c(F)c1 | 9.00 | > 80 | > 80 | > 9.00 | > 9.00 | > 80 | – | – | – | – | –
Cc1cc(Cl)ccc1[C@H](C)NC(=O)Cn1nc2ncccn2c1=O | – | – | > 80 | ≤ 7.00 | – | 50 | ≤ 7.00 | – | 9.00 | – | 25
C[C@H](NC(=O)Cn1nc2ncccn2c1=O)c1ccc(Cl)c(F)c1 | – | 50 | > 80 | – | – | 50 | ≤ 7.00 | 9.00 | 9.00 | – | –
C[C@H](NC(=O)Cn1nc2c(C(F)F)nccn2c1=O)c1ccc(OC(F)(F)F)cc1 | – | 50 | > 80 | ≤ 7.00 | – | – | > 9.00 | – | 9.00 | 25 | –
COc1cccc2nn(CC(=O)N[C@@H](C)c3ccc(C)cc3)c(=O)n12 | 9.00 | 50 | > 80 | – | > 9.00 | – | – | 9.00 | – | 25 | –
Cc1cnn2c(=O)n(CC(=O)N[C@@H](C)c3ccc(OC(F)(F)F)cc3)nc2c1 | – | 50 | > 80 | ≤ 7.00 | – | 50 | ≤ 7.00 | – | 9.00 | – | –
